Like-named read-outs stand apart in the source and are kept apart here.
Experiments:
[1] = test system: formalin-induced inflammatory pain; experiment: Formalin-induced nociceptive behavioral test; format: in vivo, mouse; conditions: mice
Experimental: The formalin test was conducted following our previously published protocol (Chen, Ji, et al. 2018; Neurosci Bull; 34: 98-108). The animals were acclimatized in a transparent acrylic observation chamber for 2 days before test. Vehicle or active compound were administered intrathecally, intraperitoneally, or intraplantarly, 30 min later followed by an intraplantar injection of 20 μL of 5% formalin. After the formalin injection, mice were immediately placed back in the observation chamber, and videoed for 40 min. The videos were analyzed after experiments in a double blinded way. We assessed formalin-evoked spontaneous pain by measuring the time (in seconds) mice spent on licking or flinching the affected paw every 5 min for […]. Phase I and Phase II were defined as periods of 0-10 min and 10-40 min, respectively.
For intrathecal injection, spinal cord puncture was made by a Hamilton microsyringe (Hamilton Company, Reno, Nevada) with a 30-G needle between the L5 and L6 level to deliver reagents (5 μL) to the cerebral spinal fluid. For intraperitoneal injection, Vehicle or drug was injected into peritoneal with a 30-G needle. For intraplantar injection, 20 μL vehicle or drug was injected into the surface of the hind paw.

[2] = test system: human dorsal root ganglion (DRG) neurons; experiment: Patch-clamp of transient sodium currents in human DRG neurons; format: cell-based
Experimental: Non-diseased human DRGs were obtained from donors through NDRI with permission of exemption from Duke IRB. Postmortem L3-L5 DRGs were dissected and delivered in ice-cold culture medium to the laboratory at Duke University within 24-72 hours of donor's death. Upon the delivery, DRGs were rapidly dissected from nerve roots and minced in a calcium-free HBSS (Gibco). DRGs were digested at 37° C. in a humidified 02 incubator for 120 min with collagenase Type II (Worthington, 285 units/mg, 12 mg/mL final concentration) and dispase II (Roche, 1 unit/mg, 20 mg/mL) in HBSS buffer. DRGs were mechanically dissociated using fire-polished pipettes, filtered through a […] nylon mesh and centrifuged (500×g for 5 min). The pellet was resuspended, plated on 0.5 mg/mL poly-D-lysine-coated glass coverslips, and cells were grown in Neurobasal medium supplemented with 10% FBS, 2% B-27 supplement, and 1% penicillin/streptomycin. Patch clamp recordings were conducted in small-diameter (<55 μm) DRG neurons (PMID: 26479925).
Whole-cell patch-clamp recordings were conducted at room temperature. Patch pipettes pulled from borosilicate capillaries (World Precision Instruments, Inc., Sarasota, FL) were used to record transient Na currents with an Axopatch-200B amplifier with a Digidata 1440A (Axon Instruments, Sunnyvale CA). The resistance was set to 3-4 MΩ when filled with pipette solution. […]

human Nav1.7 = human Nav1.7 (Homo sapiens, UniProt Q15858); experiment: Whole-cell patch-clamp of sodium currents in Nav1.7-expressing HEK293 cells; format: cell-based
Sequence of human Nav1.7 (Q15858 whole entry): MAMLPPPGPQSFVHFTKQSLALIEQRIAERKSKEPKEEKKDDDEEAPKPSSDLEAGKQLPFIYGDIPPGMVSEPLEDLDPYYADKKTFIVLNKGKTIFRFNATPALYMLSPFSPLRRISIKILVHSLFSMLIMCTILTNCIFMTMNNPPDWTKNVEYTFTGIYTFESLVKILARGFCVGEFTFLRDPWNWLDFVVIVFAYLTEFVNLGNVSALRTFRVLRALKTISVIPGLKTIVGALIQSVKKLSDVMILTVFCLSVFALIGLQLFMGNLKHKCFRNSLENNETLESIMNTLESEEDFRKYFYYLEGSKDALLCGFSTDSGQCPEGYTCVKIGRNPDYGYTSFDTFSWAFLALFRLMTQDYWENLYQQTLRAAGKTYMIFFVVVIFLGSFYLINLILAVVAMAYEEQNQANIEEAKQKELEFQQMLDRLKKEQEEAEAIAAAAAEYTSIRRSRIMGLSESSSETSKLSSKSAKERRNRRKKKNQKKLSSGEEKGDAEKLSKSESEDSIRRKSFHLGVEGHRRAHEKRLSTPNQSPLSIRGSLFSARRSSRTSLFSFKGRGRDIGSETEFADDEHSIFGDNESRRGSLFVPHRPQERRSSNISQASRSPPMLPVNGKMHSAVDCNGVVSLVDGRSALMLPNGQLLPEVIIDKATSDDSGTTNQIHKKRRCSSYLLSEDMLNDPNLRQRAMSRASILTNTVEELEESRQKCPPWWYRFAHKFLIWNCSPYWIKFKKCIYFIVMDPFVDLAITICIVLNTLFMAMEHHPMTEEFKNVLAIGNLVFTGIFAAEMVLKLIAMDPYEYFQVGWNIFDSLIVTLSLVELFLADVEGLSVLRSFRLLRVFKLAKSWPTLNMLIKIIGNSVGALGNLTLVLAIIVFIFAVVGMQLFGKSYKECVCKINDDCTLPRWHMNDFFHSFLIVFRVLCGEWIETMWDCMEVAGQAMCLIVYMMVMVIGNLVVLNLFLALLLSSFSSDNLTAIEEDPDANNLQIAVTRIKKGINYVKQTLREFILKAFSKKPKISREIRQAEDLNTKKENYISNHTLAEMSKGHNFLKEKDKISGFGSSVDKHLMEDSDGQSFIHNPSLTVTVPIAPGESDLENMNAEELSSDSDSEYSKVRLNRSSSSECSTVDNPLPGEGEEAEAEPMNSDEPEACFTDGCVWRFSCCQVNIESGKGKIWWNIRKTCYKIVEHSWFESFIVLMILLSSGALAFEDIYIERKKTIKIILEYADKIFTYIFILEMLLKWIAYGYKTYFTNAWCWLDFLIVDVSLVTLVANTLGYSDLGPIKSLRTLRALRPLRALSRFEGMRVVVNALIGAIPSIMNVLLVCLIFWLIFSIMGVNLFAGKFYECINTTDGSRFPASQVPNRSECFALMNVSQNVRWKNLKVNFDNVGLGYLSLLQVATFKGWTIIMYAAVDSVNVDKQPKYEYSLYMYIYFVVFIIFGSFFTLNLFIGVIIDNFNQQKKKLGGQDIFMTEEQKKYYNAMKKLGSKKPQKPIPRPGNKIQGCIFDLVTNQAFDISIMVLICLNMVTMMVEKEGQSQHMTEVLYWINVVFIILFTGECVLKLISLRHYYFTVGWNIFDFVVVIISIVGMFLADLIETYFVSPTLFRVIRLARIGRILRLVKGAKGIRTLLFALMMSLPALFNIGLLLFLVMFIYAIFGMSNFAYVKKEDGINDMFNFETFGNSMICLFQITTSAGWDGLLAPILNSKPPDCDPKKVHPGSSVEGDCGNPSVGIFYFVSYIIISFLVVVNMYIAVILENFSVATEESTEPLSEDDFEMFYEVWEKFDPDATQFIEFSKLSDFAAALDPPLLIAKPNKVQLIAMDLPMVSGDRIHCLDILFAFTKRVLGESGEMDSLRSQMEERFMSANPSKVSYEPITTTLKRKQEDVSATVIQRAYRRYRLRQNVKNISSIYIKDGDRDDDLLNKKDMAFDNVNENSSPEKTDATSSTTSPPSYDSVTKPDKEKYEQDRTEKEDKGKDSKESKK
Experimental: (§1) HEK-hNav1.7 stable cell line was purchased from SB Drug Discovery (Glasgow, United Kingdom). Human embryonic kidney 293 (HEK293) cells were obtained from the ATCC and maintained at the Duke cell culture facility. Cells were cultured in high-glucose (4.5 g/L) DMEM containing 10% (v/v) FBS (Gibco) and streptomycin/penicillin. For Nav1.7-expressing HEK293 cells, an additional antibiotic, blasticidin, was included. hNav1.5 transfection was performed by Lipofectamine 2000 at 70% confluence using 2 μg cDNA. The transfected cells were cultured in the same growth medium for 48 h before biochemical or electrophysiological studies.
(§2) Whole-cell patch-clamp recordings were conducted at room temperature. Patch pipettes pulled from borosilicate capillaries (World Precision Instruments, Inc., Sarasota, FL) were used to record transient Na currents with an Axopatch-200B amplifier with a Digidata 1440A (Axon Instruments, Sunnyvale CA). The resistance was set to 3-4 MΩ when filled with pipette solution. The pipette solution contained (in mmol/L): CsCl 130, NaCl 9, MgCl2 1, EGTA 10, HEPES 10, adjusted to pH 7.3 with CsOH. The external solution for recording transient Na^+ currents contained (in mmol/L): NaCl 131, TEACl 10, CsCl 10, CaCl2) 1, MgCl2 2, CdCl2 0.3, 4-aminopyridine 3, HEPES 10, glucose 10, adjusted to pH 7.4 with NaOH. The recording chamber (300 μL) was continuously superfused at 3-4 mL/min. Series resistance was compensated (>80%) and leak subtraction was performed. Data were low-pass-filtered at 2 kHz and sampled at 10 kHz. pClamp10 (Axon Instruments) software was used during experiments and analysis. In voltage-clamp experiments, transient Na+ currents were evoked by a test pulse to 0 mV from the holding potential (−70 mV).
The effects of the 9 selected compounds on Nav1.7 channel activities were tested using patch-clamp recordings on human Nav1.7 expressing HEK293 cells (FIG. 3, FIG. 4). In each cell, sodium currents were recorded for 13 min, and candidate inhibitors (10 μM) were incubated for 2 min after 2 min baseline recording (FIG. 3). Compound was applied at the beginning of the second minute for two minutes (denoted as a horizontal line above the X-axis). Sodium currents were recorded at equal intervals (every 20 seconds, 40 recordings per compound per cell). Data was analyzed with a two-way repeated measures ANOVA, followed by a post-hoc test of the last timepoint Bonferroni-corrected for 9 pairwise comparisons (each compound was compared with control). […] Sample size n=3 to 7 cells per group.
For FIG. 4C, sample size was n=5 to 7 cells per group. Compound was applied at the beginning of the second minute for two minutes (denoted as a horizontal line above the X-axis). Sodium currents were recorded every 20 seconds.

[3] = test system: mouse dorsal root ganglion (DRG) neurons; experiment: Patch-clamp of transient sodium currents in mouse DRG neurons (naive and paclitaxel-pretreated); format: cell-based; conditions: for inhibition at 10 µM: Mus musculus, DRG neuron
Experimental: Mouse DRGs were removed aseptically from mice (4-6 weeks) and incubated with collagenase (1.25 mg/mL, Roche)/dispase-II (2.4 units/mL, Roche) in HBSS buffer at 37° C. for 90 min. Cells were mechanically dissociated with a flame polished Pasteur pipette in the presence of 0.05% DNAse I (Sigma). DRG cells were plated on 0.5 mg/mL poly-D-lysine-coated glass cover slips and grown in a neurobasal defined medium (with 10% FBS, 2% B27 supplement, Invitrogen) with 5 μM AraC and 5% carbon dioxide at 36.5° C. DRG neurons were grown for 24 hours before use. Patch clamp recordings were conducted in small-diameter (<25 μm) DRG neurons.
as §2

hNav1.5 = biological target: T1, hNav1.5 (Homo sapiens, UniProt Q14524); experiment: Whole-cell patch-clamp of sodium currents in Nav1.5-transfected HEK293 cells; format: cell-based; conditions: FIG. 4D, E
T1 construct: expressed in transfected cells; host or cells: HEK293 (ATCC), transient transfection with Lipofectamine 2000
T1 sequence (Q14524 whole entry): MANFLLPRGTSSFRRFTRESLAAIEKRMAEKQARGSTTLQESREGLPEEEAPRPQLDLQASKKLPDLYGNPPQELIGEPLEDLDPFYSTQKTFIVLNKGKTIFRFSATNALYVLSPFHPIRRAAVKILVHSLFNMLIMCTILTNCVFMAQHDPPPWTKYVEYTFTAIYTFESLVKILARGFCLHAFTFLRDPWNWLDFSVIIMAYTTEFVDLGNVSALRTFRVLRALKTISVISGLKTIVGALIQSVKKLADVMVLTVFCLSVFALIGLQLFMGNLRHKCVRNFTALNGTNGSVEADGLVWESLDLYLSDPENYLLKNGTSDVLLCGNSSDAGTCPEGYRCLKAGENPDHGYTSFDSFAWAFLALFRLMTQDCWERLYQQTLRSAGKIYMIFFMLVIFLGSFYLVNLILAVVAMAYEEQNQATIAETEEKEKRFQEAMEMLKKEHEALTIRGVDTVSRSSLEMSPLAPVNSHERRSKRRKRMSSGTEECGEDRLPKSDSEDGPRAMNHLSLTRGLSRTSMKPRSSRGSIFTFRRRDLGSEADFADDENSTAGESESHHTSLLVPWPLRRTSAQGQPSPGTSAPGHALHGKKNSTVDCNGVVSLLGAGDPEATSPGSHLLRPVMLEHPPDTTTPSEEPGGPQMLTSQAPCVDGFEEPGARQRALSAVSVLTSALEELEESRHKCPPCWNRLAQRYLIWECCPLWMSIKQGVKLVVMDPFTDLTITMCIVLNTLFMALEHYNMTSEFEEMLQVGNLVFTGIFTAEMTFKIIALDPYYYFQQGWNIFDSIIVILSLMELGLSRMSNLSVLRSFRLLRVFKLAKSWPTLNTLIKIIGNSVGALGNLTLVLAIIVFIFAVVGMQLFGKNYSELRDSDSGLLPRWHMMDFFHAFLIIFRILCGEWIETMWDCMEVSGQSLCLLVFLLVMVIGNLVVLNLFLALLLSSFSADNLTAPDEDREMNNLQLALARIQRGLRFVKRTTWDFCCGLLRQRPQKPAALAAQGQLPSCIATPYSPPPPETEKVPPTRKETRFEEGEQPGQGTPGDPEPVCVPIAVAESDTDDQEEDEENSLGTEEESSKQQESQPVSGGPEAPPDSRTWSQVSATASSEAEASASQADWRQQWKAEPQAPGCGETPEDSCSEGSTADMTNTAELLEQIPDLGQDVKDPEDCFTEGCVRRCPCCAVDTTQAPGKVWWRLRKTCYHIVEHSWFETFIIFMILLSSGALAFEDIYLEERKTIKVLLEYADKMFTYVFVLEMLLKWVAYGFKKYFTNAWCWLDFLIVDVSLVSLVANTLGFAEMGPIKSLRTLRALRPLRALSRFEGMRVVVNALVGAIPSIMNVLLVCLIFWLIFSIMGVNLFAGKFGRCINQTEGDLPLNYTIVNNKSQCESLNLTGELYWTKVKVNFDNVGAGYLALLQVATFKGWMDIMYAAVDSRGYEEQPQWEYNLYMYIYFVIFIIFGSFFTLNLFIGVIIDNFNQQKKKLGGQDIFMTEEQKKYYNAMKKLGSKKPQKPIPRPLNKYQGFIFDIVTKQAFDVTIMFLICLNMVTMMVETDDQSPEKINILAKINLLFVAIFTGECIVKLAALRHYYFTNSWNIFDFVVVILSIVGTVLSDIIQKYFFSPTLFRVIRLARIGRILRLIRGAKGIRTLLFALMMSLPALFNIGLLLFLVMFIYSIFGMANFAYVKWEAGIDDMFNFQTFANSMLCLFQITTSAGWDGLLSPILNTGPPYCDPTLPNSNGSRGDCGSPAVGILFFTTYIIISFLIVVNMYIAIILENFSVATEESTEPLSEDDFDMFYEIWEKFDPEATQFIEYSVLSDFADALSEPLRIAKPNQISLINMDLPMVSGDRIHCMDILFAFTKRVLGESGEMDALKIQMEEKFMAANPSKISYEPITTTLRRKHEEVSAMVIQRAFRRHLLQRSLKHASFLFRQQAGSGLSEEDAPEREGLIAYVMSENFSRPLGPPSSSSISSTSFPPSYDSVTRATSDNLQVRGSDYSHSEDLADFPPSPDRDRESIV
Experimental: as §1
as §2, with “Series resistance was compensated (>80%) and leak subtraction was performed. Data were low-pass-filtered at 2 kHz and sampled at 10 kHz. pClamp10 (Axon Instruments) software was used during experiments and analysis. In voltage-clamp experiments, transient Na+ currents were evoked by a test pulse to 0 mV from the holding potential (−70 mV).” left out

## O=C(CC(c1cccc(Oc2ccccc2)c1)c1cn(Cc2ccccc2)c2ccccc12)NCCN1CCCC1 (centres unmarked) [Compound 9, 3-(1-benzyl-1H-indol-3-yl)-3-(3-phenoxyphenyl)-N-(2-(pyrrolidin-1-yl)ethyl)propanamide]
[1]; intraperitoneal 30 mg/kg
  inhibition of formalin-induced pain in Phase II: 76%
[1]; intraplantar 60 nmol
  inhibition of formalin-induced pain in Phase II: significant inhibition
[1]; intrathecal 30 nmol
  effect on formalin Phase I response: reduced Phase I response
[1]; intrathecal (3, 10 and 30 nmol)
  inhibition of formalin-induced second-phase (Phase II) pain: 80%
[2]
  mean relative current at the last measurement: 73 % of the baseline
[2]; 10 uM
  relative current difference (inhibition of peak INaT): 0.22
Human Nav1.7; 0.01 μM, dose-response (FIG. 4), not significant
  difference in relative current from the control group at the last measurement: 0.13
Human Nav1.7; 0.1 μM, dose-response (FIG. 4)
  difference in relative current from the control group at the last measurement: 0.27
Human Nav1.7; 1 μM
  inhibition of sodium currents vs. control: 47%
Human Nav1.7; 1 μM, dose-response (FIG. 4)
  difference in relative current from the control group at the last measurement: 0.47
Human Nav1.7; 10 μM, dose-response (FIG. 4)
  difference in relative current from the control group at the last measurement: 0.76
Human Nav1.7; 10 μM, screen of compounds 1-9 (FIG. 3)
  difference in relative current from the control group at the last measurement: 0.71
Human Nav1.7; Nav1.7-expressing HEK293 cells, dose-response, read-out: 50% inhibition concentration (IC50)
  IC50: 740 nM
[3]; 10 μM, mouse DRG neurons
  time to peak inhibition after the drug incubation: 10 min
[3]; 10 μM, naive (non-treated) mouse DRG neurons, read-out: inhibition of peak INaT (sodium currents)
  inhibition at 10 µM: 17%
[3]; 10 μM, paclitaxel pretreated mouse DRG neurons, read-out: inhibition of sodium currents
  inhibition at 10 µM: 44%
[3]; mouse DRG neurons, naive
  mean relative current at the last measurement: 72 % of the baseline
[3]; mouse DRG neurons, paclitaxel-treated
  mean relative current at the last measurement: 43 % of the baseline
hNav1.5
  effect on sodium currents in Nav1.5-expressing HEK293 cells: no effects
hNav1.5; listed as DA-0218
  effect on sodium currents in Nav1.5-expressing HEK293 cells: no effect
